This experiment has as its target T1, cytochrome c (Saccharomyces cerevisiae, UniProt P00044, C108T).
T1 construct: gene CYC1; 15N-labeled cytochrome c C102T, residues numbered from -5 to 103
The experiment in a line: 1H-15N HSQC NMR titration, […] binding model, […] °C, pH […].

pKd: −log10 of the molar value.

T1 sequence (P00044 2-109 C108T): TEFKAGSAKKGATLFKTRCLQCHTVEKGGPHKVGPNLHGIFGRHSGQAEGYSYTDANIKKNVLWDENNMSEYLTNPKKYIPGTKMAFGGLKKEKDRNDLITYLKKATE

`C[C@H](NC(=O)c1cc2c3c(c1)Cc1cc(C(=O)N[C@@H](C)C(=O)O)cc4c1OCCOCCOc1c(cc(C(=O)N[C@@H](C)C(=O)O)cc1Cc1cc(C(=O)N[C@@H](C)C(=O)O)cc(c1OCCOCCO3)C2)C4)C(=O)O` [compound 1, Tetra-alanino-calix[4]arene-biscrown-3]: the negative-log Kd (pKd) is approximately 3.40.

As a reminder, the pKd is −log10 of the Kd, conventionally taken in molar units.

The values are drawn from paper PMC9737847, “Complex Formation between Cytochrome c and a Tetra-alanino-calix[4]arene” (International Journal of Molecular Sciences, 2022).
